Common to all, as to assay type: physicochemical
Series [1] in a line: Hygroscopicity by dynamic vapor sorption (DVS). The method, then: (§1) Hygroscopicity was assessed using dynamic vapor sorption equipment (Surface Measurement Systems Ltd, model DVS-1). The analysis was conducted at 30° C. with a nitrogen gas flow of 200 cc/min. Water sorption and desorption were determined in the range 0 to 90% relative humidity (RH) using 15% RH intervals. Exposure was for a minimum of 2 hours at each humidity, or until the rate of weight change was less than 0.0003%/minute (averaged over 10 minutes). Sample weight was 12.6 mg. The sample was weighed using a CAHN D-200, seven place digital recording balance, which is an integral part of the equipment. […] Solvation/Hydration was assessed by thermogravimetric analysis (TGA) using a TA Instruments Hi-Res TGA 2950 instrument measuring the weight loss of an 8.8 mg sample in an open platinum pan. The sample was heated at 20° C./min from ambient to 300° C. utilizing a nitrogen furnace purge gas.

A short description of series [2]: Solvation/hydration assessed by thermogravimetric analysis (TGA); solid form screening. The following applies: for hydration or solvation: TGA, ambient to 300° C. at 20° C./min. The method, then:
as §1

Series [3] in a line: Solid state stability and excipient compatibility on storage (drug content and impurities). The settings on record: for % main band remaining versus control: API. The method, then:
In order to test for solid state stability and excipient compatibility, a sample of the xinafoate salt was micronized by jet milling (particle size: D10=0.24 μm; D50=1.15 D90=4.29 μm) and the resulting powder was blended at a 1:100 weight ratio with lactose monohydrate (Respitose grade SV008). Samples were stored for 12 weeks at 25° C./60% relative humidity and 40° C./75% relative humidity and assayed for remaining drug content and impurities at 4, 8 and 12 weeks. A control sample was stored at 5° C./0% humidity.

Structures are written as SMILES. Counter-ions that a name gives are not always drawn.

Consider `CNC(=O)COc1cccc(Nc2ncc(F)c(Nc3ccc4c(c3)NC(=O)C(F)(F)O4)n2)c1` [xinafoate salt, N4-[(2,2-difluoro-4H-benzo[1,4]oxazin-3-one)-6-yl]-5-fluoro-N2-[3-(methylaminocarbonylmethyleneoxy)phenyl]-2,4-pyrimidinediamine], for which the hygroscopicity entry in series [1] (DVS, 0 to 90% RH, 30° C.) is given as “essentially non-hygroscopic”. Further, the water sorption in series [1] (at 90% RH, 30° C., DVS, unmicronized sample) stood at 0.6%; in series [1] (at 90% relative humidity, following micronization using jet milling), 0.9%. In addition, the “solid form after micronization” value in series [1] (following micronization using jet milling) is given as “no change in solid form”. In addition, the hydration or solvation entry in series [2] is recorded as “does not show any hydration or solvation”. The “time for which stable” value in series [3] (25° C./60% relative humidity) is given as “at least two years”; in series [3] (40° C./75% relative humidity), “at least six months”. Moreover, the “% main band remaining versus control” value was 100.2% in series [3] (25° C./60% RH, 4 weeks, control 5° C./0% humidity); 99.9% in series [3] (25° C./60% RH, 8 weeks); 100.1% in series [3] (25° C./60% RH, 12 weeks); 100.4% in series [3] (40° C./75% RH, 4 weeks); 100.0% in series [3] (40° C./75% RH, 8 weeks); 100.0% in series [3] (40° C./75% RH, 12 weeks).
As to `CNC(=O)COc1cccc(Nc2ncc(F)c(Nc3ccc4c(c3)NC(=O)C(F)(F)O4)n2)c1` [free base, N4-[(2,2-difluoro-4H-benzo[1,4]oxazin-3-one)-6-yl]-5-fluoro-N2-[3-(methylaminocarbonylmethyleneoxy)phenyl]-2,4-pyrimidinediamine], the hydration or solvation entry in series [2] is “hydrates to form a hemihydrate”. The solvate formation entry in series [2] (nine solvents tested) was “formed a different solvated form in each of nine solvents tested”.

The values above are taken from US20180064646A1, “METHOD AND DEVICE FOR ADMINISTERING XINAFOATE SALT OF N4-(2,2-DIFLUORO-4H-BENZO[1,4]OXAZIN-3-ONE)-6-YL]-5-FLUORO-N2-[3-(METHYLAMINOCARBONYLMETHYLENEOXY)PHENYL]2,4-PYRIMIDINEDIAMINE” (Rigel Pharmaceutical, Inc., priority 2011, published 2018).
